Experimental data reported in patent US8487108B2, “Piperidinyl carbamate intermediates for the synthesis of aspartic protease inhibitors” (Vitae Pharmaceuticals, Inc., priority 2005, dated 2013).

Target: T1, trypsin-activated recombinant human renin (Homo sapiens, UniProt P00797)
T1 sequence (P00797 67-406): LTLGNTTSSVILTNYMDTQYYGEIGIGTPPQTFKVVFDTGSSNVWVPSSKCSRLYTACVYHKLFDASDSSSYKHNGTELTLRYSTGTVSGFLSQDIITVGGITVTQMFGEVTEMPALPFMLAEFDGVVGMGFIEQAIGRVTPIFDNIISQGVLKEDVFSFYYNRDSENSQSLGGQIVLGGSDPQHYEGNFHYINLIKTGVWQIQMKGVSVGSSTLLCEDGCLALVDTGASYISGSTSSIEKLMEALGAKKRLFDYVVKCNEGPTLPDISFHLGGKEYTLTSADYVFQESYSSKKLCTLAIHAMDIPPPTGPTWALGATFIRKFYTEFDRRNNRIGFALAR
Experiment: Renin fluorescence assay (internally quenched peptide substrate)
Format: biochemical
Settings: compounds I*
In short: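 Compounds (1 nM–10 μM final, DMSO) were mixed with internally quenched angiotensinogen-sequence substrate in pH 7.0 BES/NaCl/BSA buffer, then 0.2-2 nM trypsin-activated human renin added. Rate from the linear fluorescence increase (340 nm excitation, 495 nm emission) over 60-360 min at rt, compared with uninhibited control.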

Structure (SMILES): CNC[C@H](CC1CCOCC1)NC(=O)N1CCC[C@@H]([C@@](C)(OCCNC(=O)OC)c2cccc(Cl)c2)C1 [I*-103a, methyl 2-((R)-1-(3-chlorophenyl)-1-((R)-1-((S)-1-(methylamino)-3-(tetrahydro-2H-pyran-4-yl)propan-2-ylcarbamoyl)piperidin-3-yl)ethoxy)ethylcarbamate]
- IC50: < 20 nM

Structure (SMILES): CNC[C@H](CC12CC3CC(CC1C3)C2)NC(=O)N1CCC[C@@H]([C@@H](OCCNC(=O)OC)c2cc(F)ccc2F)C1 [I*-149a, methyl 2-((R)-((R)-1-((S)-1-(3-noradamantyl)-3-(methylamino)propan-2-ylcarbamoyl)piperidin-3-yl)(2,5-difluorophenyl)methoxy)ethylcarbamate]
- IC50: < 10 nM

Structure (SMILES): CCNC(=O)CO[C@@H](c1cccc(Cl)c1)[C@@H]1CCCN(C(=O)N[C@H](CNC)CC2CCOCC2)C1 [I*-31a, (R)-3-((R)-(3-chlorophenyl)(2-(ethylamino)-2-oxoethoxy)methyl)-N—((S)-1-(methylamino)-3-(tetrahydro-2H-pyran-4-yl)propan-2-yl)piperidine-1-carboxamide]
- IC50: > 50 nM

Structure (SMILES): CNC[C@H](CC1CCCCC1)NC(=O)N1CCC[C@@H]([C@@H](OCCNC(=O)OC)c2cccc(C(F)(F)F)c2)C1 [I*-136a, methyl 2-((R)-((R)-1-((S)-1-cyclohexyl-3-(methylamino)propan-2-ylcarbamoyl)piperidin-3-yl)(3-(trifluoromethyl)phenyl)methoxy)ethylcarbamate]
- IC50: < 10 nM

Structure (SMILES): CNC[C@H](CC1CCCCC1)NC(=O)N1CCC[C@@H]([C@@H](OCCNC(=O)OC)c2nccs2)C1 [I*-13a, methyl 2-((R)-((R)-1-((S)-1-cyclohexyl-3-(methylamino)propan-2-ylcarbamoyl)piperidin-3-yl)(thiazol-2-yl)methoxy)ethylcarbamate]
- IC50: < 20 nM

Structure (SMILES): CNC[C@H](CC1CCC(F)(F)CC1)NC(=O)N1CCC[C@@H]([C@@H](OCCNC(=O)OC)c2cccc(F)c2)C1 [I*-120a, methyl 2-((R)—((R)-1-((S)-1-(4,4-difluorocyclohexyl)-3-(methylamino)propan-2-ylcarbamoyl)piperidin-3-yl)(3-fluorophenyl)methoxy)ethylcarbamate]
- IC50: < 1 nM

Structure (SMILES): CNC[C@H](CC1CCC(O)CC1)NC(=O)N1CCC[C@@H]([C@@H](OCCNC(=O)OC)c2cccc(F)c2)C1 (stereo partly drawn) [I*-51a, methyl 2-((R)-(3-fluorophenyl)((R)-1-((S)-1-(4-hydroxycyclohexyl)-3-(methylamino)propan-2-ylcarbamoyl)piperidin-3-yl)methoxy)ethylcarbamate]
- IC50: > 50 nM

Structure (SMILES): CNC[C@@H](CC1(C)CCCCC1)NC(=O)N1CCC[C@@H]([C@@H](OCCNC(=O)OC)c2cccc(F)c2)C1 [I*-42a, methyl 2-((R)-(3-fluorophenyl)((R)-1-((R)-1-(methylamino)-3-(1-methylcyclohexyl)propan-2-ylcarbamoyl)piperidin-3-yl)methoxy)ethylcarbamate]
- IC50: > 50 nM

Structure (SMILES): CNC[C@H](C[C@H]1CCC(=O)N(C)C1)NC(=O)N1CCC[C@@H]([C@@H](OCCNC(=O)OC)c2cccc(F)c2)C1 [I*-76a, methyl 2-((R)-(3-fluorophenyl)((R)-1-((S)-1-((R)-1-methyl-6-oxopiperidin-3-yl)-3-(methylamino)propan-2-ylcarbamoyl)piperidin-3-yl)methoxy)ethylcarbamate]
- IC50: > 50 nM

Structure (SMILES): COC(=O)NCCO[C@@H](c1cccc(Cl)c1)[C@@H]1CCCN(C(=O)NC[C@@H](N)COc2ccccc2)C1 [I*-38a, methyl 2-((R)—((R)-1-((R)-2-amino-3-phenoxypropylcarbamoyl)piperidin-3-yl)(3-chlorophenyl)methoxy)ethylcarbamate]
- IC50: < 50 nM

Structure (SMILES): CNC[C@H](CC1CCCCC1)NC(=O)N1CCC[C@@H]([C@H](OCCNC(=O)OC)c2nccs2)C1 [I*-12a, methyl 2-((S)-((R)-1-((S)-1-cyclohexyl-3-(methylamino)propan-2-ylcarbamoyl)piperidin-3-yl)(thiazol-2-yl)methoxy)ethylcarbamate]
- IC50: > 50 nM

Structure (SMILES): CNC[C@H](C[C@H]1CCCCOC1)NC(=O)N1CCC[C@@H]([C@@H](OCCNC(=O)OC)c2cccc(Cl)c2F)C1 [I*-140a, methyl 2-((R)-(3-chloro-2-fluorophenyl)((R)-1-((S)-1-(methylamino)-3-((R)-oxepan-3-yl)propan-2-ylcarbamoyl)piperidin-3-yl)methoxy)ethylcarbamate]
- IC50: < 1 nM

Structure (SMILES): CCC(C)(C)C[C@@H](CNC)NC(=O)N1CCC[C@@H]([C@@H](OCCNC(=O)OC)c2cccc(Cl)c2)C1 [I*-34a, methyl 2-((R)-(3-chlorophenyl)((R)-1-((S)-4,4-dimethyl-1-(methylamino)hexan-2-ylcarbamoyl)piperidin-3-yl)methoxy)ethylcarbamate]
- IC50: < 10 nM

Structure (SMILES): CNC[C@H](CC1CCC(F)(F)CC1)NC(=O)N1CCC[C@@H]([C@@H](OCCNC(=O)OC)c2cc(F)cc(F)c2)C1 [I*-147a, methyl 2-((R)-((R)-1-((S)-1-(4,4-difluorocyclohexyl)-3-(methylamino)propan-2-ylcarbamoyl)piperidin-3-yl)(3,5-difluorophenyl)methoxy)ethylcarbamate]
- IC50: < 1 nM

Structure (SMILES): CNC[C@H](CC1CCOCC1)NC(=O)N1CCC[C@@H]([C@@H](OCCNC(=O)OC)c2cccc(C(F)(F)F)c2)C1 [I*-144a, methyl 2-((R)-((R)-1-((S)-1-(methylamino)-3-(tetrahydro-2H-pyran-4-yl)propan-2-ylcarbamoyl)piperidin-3-yl)(3-(trifluoromethyl)phenyl)methoxy)ethylcarbamate]
- IC50: > 50 nM

Structure (SMILES): CNC[C@H](C[C@H]1C[C@@H](C)O[C@@H](C)C1)NC(=O)N1CCC[C@@H]([C@@H](OCCNC(=O)OC)c2cccc(F)c2)C1 [I*-77a, methyl 2-((R)-((R)-1-((S)-1-((2S,4r,6R)-2,6-dimethyl-tetrahydro-2H-pyran-4-yl)-3-(methylamino)propan-2-ylcarbamoyl)piperidin-3-yl)(3-fluorophenyl)methoxy)ethylcarbamate]
- IC50: > 50 nM

Structure (SMILES): COC(=O)NCCO[C@@H](c1cccc(F)c1)[C@@H]1CCCN(C(=O)N[C@H](CN)CC2CCCCC2)C1 [I*-4a, methyl 2-((R)-((R)-1-((S)-1-amino-3-cyclohexylpropan-2-ylcarbamoyl)piperidin-3-yl)(3-fluorophenyl)methoxy)ethylcarbamate]
- IC50: < 1 nM

Structure (SMILES): CNC[C@H](C[C@H]1CCCOCC1)NC(=O)N1CCC[C@@H]([C@@H](OCCNC(=O)OC)c2cccc(Cl)c2)C1 [I*-98a, methyl 2-((R)-(3-chlorophenyl)((R)-1-((S)-1-(methylamino)-3-((R)-oxepan-4-yl)propan-2-yl-carbamoyl)piperidin-3-yl)methoxy)ethylcarbamate]
- IC50: < 10 nM

Structure (SMILES): CNC[C@H](C[C@H]1CCCCOC1)NC(=O)N1CCC[C@@H]([C@@H](OCCNC(=O)OC)c2cc(F)ccc2C)C1 [I*-79a, methyl 2-((R)-(5-fluoro-2-methylphenyl)((R)-1-((S)-1-(methylamino)-3-((R)-oxepan-3-yl)propan-2-ylcarbamoyl)piperidin-3-yl)methoxy)ethylcarbamate]
- IC50: < 10 nM

Structure (SMILES): CNC[C@H](CC1CCCOCC1)NC(=O)N1CCC[C@@H]([C@@H](OCCNC(=O)OC)c2cccc(F)c2)C1 (stereo partly drawn) [I*-47a, methyl 2-((R)-(3-fluorophenyl)((3R)-1-((S)-1-(methylamino)-3-(oxepan-4-yl)propan-2-ylcarbamoyl)piperidin-3-yl)methoxy)ethylcarbamate]
- IC50: < 10 nM

Structure (SMILES): CNC[C@H](CC1CCOCC1)NC(=O)N1CCO[C@@H]([C@@H](OCCNC(=O)OC)c2cccc(Cl)c2)C1 [I*-75a, methyl 2-((S)-(3-chlorophenyl)((R)-4-((S)-1-(methylamino)-3-(tetrahydro-2H-pyran-4-yl)propan-2-ylcarbamoyl)morpholin-2-yl)methoxy)ethylcarbamate]
- IC50: > 50 nM

Structure (SMILES): CNC[C@H](CC12CC3CC(CC1C3)C2)NC(=O)N1CCC[C@@H]([C@@](C)(OCCNC(=O)OC)c2cccc(Cl)c2)C1 [I*-151a, methyl 2-((R)-1-(3-chlorophenyl)-1-((3R)-1-((S)-1-(3-noradamantyl)-3-(methylamino)propan-2-ylcarbamoyl)piperidin-3-yl)ethoxy)ethylcarbamate]
- IC50: < 1 nM

Structure (SMILES): CN[C@H](CNC(=O)N1CCC[C@@H]([C@@H](OCCNC(=O)OC)c2cccc(Cl)c2)C1)C[C@H]1CCCCOC1 [I*-110a, methyl 2-((R)-(3-chlorophenyl)((R)-1-((S)-2-(methylamino)-3-((R)-oxepan-3-yl)propylcarbamoyl)piperidin-3-yl)methoxy)ethylcarbamate]
- IC50: < 1 nM

Structure (SMILES): CNC[C@H](C[C@H]1CCCCOC1)NC(=O)N1CCC[C@@H]([C@@H](OCCNC(=O)OC)c2cc(F)cc(Cl)c2)C1 [I*-141a, methyl 2-((R)-(3-chloro-5-fluorophenyl)((R)-1-((S)-1-(methylamino)-3-((R)-oxepan-3-yl)propan-2-ylcarbamoyl)piperidin-3-yl)methoxy)ethylcarbamate]
- IC50: < 1 nM

Structure (SMILES): CNC[C@H](CCCOC)NC(=O)N1CCC[C@@H]([C@@H](OCCNC(=O)OC)c2cccc(Cl)c2)C1 [I*-1a]
- IC50: > 50 nM
